In US8471021B2, “Sulfur containing heterocycle-fused naphthalene tetracarboxylic acid diimide derivatives, preparation method and use thereof” (Shanghai Institute Of Organic Chemistry, Chinese Academy Of …, priority 2009, dated 2013):

Tests used:
[1] = Cyclic voltammetry in dichloromethane; format: physicochemical; conditions: for LUMO energy level: calculated by equation (2), −(E1/2^red1+4.44); for half-wave potential E1/2^red1 / half-wave potential E1/2^red2: Bu4NPF6 0.1 M, 50 mV/s
Experimental: Cyclic voltammetry measurement was conducted by CHI610D electrochemical analyzer with computer control using a conventional tri-electrode system with platinum electrode as a working electrode, saturated calomel electrode (SCE) as a reference electrode, and platinum wire as a counter electrode. Samples were dissolved in freshly distilled dichloromethane to a molar concentration of 1×10^−3 M. Bu4NPF6 (0.1 M) was applied as a supporting electrolyte. The scan rate was 50 mV/s. Using saturated calomel as reference, taking the SCE energy level to be −4.44 eV below the vacuum level, the LUMO energies for the test material can be calculated by using the following equation for energy level: ELUMO=−(E1/2^red1+4.44) eV (2)

[2] = UV absorption spectrum in dichloromethane; format: physicochemical; conditions: for optical band gap: calculated by equation (1), 1240 nm/λonset
Experimental: UV absorption spectrum measurement was conducted using U-3900 spectrometer. Samples were dissolved in dichloromethane to a molar concentration of 1×10^−6M, the scanning scope was 800-200 nm, and the optical band gap of the compound was calculated according to the following equation, Egap^opt=1240 nm/λonset (1)

[3] = Solubility in common organic solvents at room temperature; format: physicochemical; conditions: for example chloroform, tetrahydrofuran
Excerpt: The 21 exemplary compounds (1˜21) described above for the five classes of sulfur containing heterocycle fused naphthalenetetracarboxylic acid diimide derivatives are soluble in regular organic solvents, such as chloroform, toluene, chlorobenzene, dichlorobenzene, and the like.

[4] = Cyclic voltammetry in dichloromethane; format: physicochemical; conditions: calculated by equation (3), −(Ered^onset+4.4)

SMILES: CCCCCCCCCCCCC(CCCCCCCCCC)Cn1c(=O)c2c3sc(=C(C#N)C#N)sc3c3c(=O)n(CC(CCCCCCCCCC)CCCCCCCCCCCC)c(=O)c4c5sc(=C(C#N)C#N)sc5c(c1=O)c2c34 (stereo not shown) [Compound 1, N,N′-di(2-decyltetradecyl)-[2,3-d:6,7-d′]-bi[2-(1,3-dithiacyclopenten-2-ylidene)-2-malononitrile]-naphthalene-1,4,5,8-tetracarboxylic acid diimide]
- melting point: 240 °C
- LUMO energy level [1]: −4.35 eV
- half-wave potential E1/2^red1 ([1]; vs SCE, dichloromethane): −0.09 V
- half-wave potential E1/2^red2 ([1]; vs SCE, dichloromethane): −0.63 V
- optical band gap [2]: 2.1 eV
- maximum UV absorption peak ([2]; dichloromethane, 1×10^−6M): around 573 nm

SMILES: CCCCCCCCCCC(CCCCCCCC)Cn1c(=O)c2c3sc(=C(C#N)C#N)sc3c3c(=O)n(CC(CCCCCCCC)CCCCCCCCCC)c(=O)c4c5sc(=C(C#N)C#N)sc5c(c1=O)c2c34 (stereo not shown) [Compound 2, N,N′-di(2-octyldodecyl)-[2,3-d:6,7-d′]-bi[2-(1,3-dithiacyclopenten-2-ylidene)-2-malononitrile]-naphthalene-1,4,5,8-tetracarboxylic acid diimide]
- melting point: 265 °C

SMILES: CCCCCCCCC(CCCCCC)Cn1c(=O)c2c3sc(=C(C#N)C#N)sc3c3c(=O)n(CC(CCCCCC)CCCCCCCC)c(=O)c4c5sc(=C(C#N)C#N)sc5c(c1=O)c2c34 (stereo not shown) [Compound 3, N,N′-di(2-hexyldecyl)-[2,3-d:6,7-d′]-bi[2-(1,3-dithiacyclopenten-2-ylidene)-2-malononitrile]-naphthalene-1,4,5,8-tetracarboxylic acid diimide]
- melting point: 317 to 319 °C

SMILES: CCCCCCC(CCCCCC)Cn1c(=O)c2c3sc(=C(C#N)C#N)sc3c3c(=O)n(CC(CCCCCC)CCCCCC)c(=O)c4c5sc(=C(C#N)C#N)sc5c(c1=O)c2c34 [Compound 4, N,N′-di(2-hexyloctyl)-[2,3-d:6,7-d′]-bi[2-(1,3-dithiacyclopenten-2-ylidene)-2-malononitrile]-naphthalene-1,4,5,8-tetracarboxylic acid diimide]
- melting point: 349 to 351 °C

SMILES: CCCCCCC(CCCC)Cn1c(=O)c2c3sc(=C(C#N)C#N)sc3c3c(=O)n(CC(CCCC)CCCCCC)c(=O)c4c5sc(=C(C#N)C#N)sc5c(c1=O)c2c34 (stereo not shown) [Compound 5, N,N′-di(2-butyloctyl)-[2,3-d:6,7-d′]-bi[2-(1,3-dithiacyclopenten-2-ylidene)-2-malononitrile]-naphthalene-1,4,5,8-tetracarboxylic acid diimide]
- melting point: 369 to 371 °C

SMILES: CCCCC(CC)Cn1c(=O)c2c3sc(=C(C#N)C#N)sc3c3c(=O)n(CC(CC)CCCC)c(=O)c4c5sc(=C(C#N)C#N)sc5c(c1=O)c2c34 (stereo not shown) [Compound 6, N,N′-di(2-ethylhexyl)-[2,3-d:6,7-d′]-bi[2-(1,3-dithiacyclopenten-2-ylidene)-2-malononitrile]-naphthalene-1,4,5,8-tetracarboxylic acid diimide]
- solubility [3]: relatively low solubility

SMILES: CCCCCCCCC(CCCCCC)CCn1c(=O)c2c3sc(=C(C#N)C#N)sc3c3c(=O)n(CCC(CCCCCC)CCCCCCCC)c(=O)c4c5sc(=C(C#N)C#N)sc5c(c1=O)c2c34 (stereo not shown) [Compound 7, N,N′-di(3-hexylundecyl)-[2,3-d:6,7-d′]-bi[2-(1,3-dithiacyclopenten-2-ylidene)-2-malononitrile]-naphthalene-1,4,5,8-tetracarboxylic acid diimide]
- melting point: 330 to 332 °C

SMILES: CCCCCCCCn1c(=O)c2c3sc(=C(C#N)C#N)sc3c3c(=O)n(CCCCCCCC)c(=O)c4c5sc(=C(C#N)C#N)sc5c(c1=O)c2c34 [Compound 8, N,N′-di(n-octyl)-[2,3-d:6,7-d′]-bi[2-(1,3-dithiacyclopenten-2-ylidene)-2-malononitrile]-naphthalene-1,4,5,8-tetracarboxylic acid diimide]
- solubility [3]: relatively low solubility

SMILES: CCCCCCCCCCC(CCCCCCCC)Cn1c(=O)c2c3sc(=C(C#N)C(=O)OCC)sc3c3c(=O)n(CC(CCCCCCCC)CCCCCCCCCC)c(=O)c4c5sc(=C(C#N)C(=O)OCC)sc5c(c1=O)c2c34 (stereo not shown) [Compound 9, N,N′-di(2-octyldodecyl)-[2,3-d:6,7-d′]-bi[ethyl 2-(1,3-dithiacyclopenten-2-ylidene)-2-cyanoacetate]-naphthalene-1,4,5,8-tetracarboxylic acid diimide]
- LUMO energy level [1]: −4.23 eV
- half-wave potential E1/2^red1 ([1]; vs SCE, dichloromethane): −0.21 V
- half-wave potential E1/2^red2 ([1]; vs SCE, dichloromethane): −0.68 V
- optical band gap [2]: 2.0 eV
- maximum UV absorption peak ([2]; dichloromethane, 1×10^−6M): around 581 nm

SMILES: CCCCCCCCCCCCC(CCCCCCCCCC)Cn1c(=O)c2c3sc(=C(C#N)c4ccccc4)sc3c3c(=O)n(CC(CCCCCCCCCC)CCCCCCCCCCCC)c(=O)c4c5sc(=C(C#N)c6ccccc6)sc5c(c1=O)c2c34 (stereo not shown) [Compound 12, N,N′-di(2-decyltetradecyl)-[2,3-d:6,7-d′]-bi[2-(1,3-dithiacyclopenten-2-ylidene)-2-phenylacetonitrile]-naphthalene-1,4,5,8-tetracarboxylic acid diimide]
- LUMO energy level [4]: −4.17 eV
- onset reduction potential Ered^onset ([1]; vs SCE, dichloromethane): −0.23 V
- half-wave potential E1/2^red1 ([1]; vs SCE, dichloromethane): -0.81 V
- optical band gap [2]: 1.8 eV
- maximum UV absorption peak ([2]; dichloromethane, 1×10^−6M): around 655 nm

SMILES: CCCCCCCCCCC(CCCCCCCC)Cn1c(=O)c2c3sc(C#N)c(C#N)sc3c3c(=O)n(CC(CCCCCCCC)CCCCCCCCCC)c(=O)c4c5sc(C#N)c(C#N)sc5c(c1=O)c2c34 (stereo not shown) [Compound 15, N,N′-di(2-octyl-dodecyl)-[2,3-d:6,7-d′]-bi[1,4-dithiacyclohexadiene-2,3-dicarbonitrile]-naphthalene-1,4,5,8-tetracarboxylic acid diimide]
- LUMO energy level [1]: −4.28 eV
- half-wave potential E1/2^red1 ([1]; vs SCE, dichloromethane): −0.16 V
- half-wave potential E1/2^red2 ([1]; vs SCE, dichloromethane): −0.64 V
- optical band gap [2]: 2.0 eV
- maximum UV absorption peak ([2]; dichloromethane, 1×10^−6M): around 550 nm

SMILES: CCCCCCCCCCCCC(CCCCCCCCCC)CN1C(=O)c2c3sc(C#N)c(C#N)c3c3c4c(c5sc(C#N)c(C#N)c5c(c24)C1=O)C(=O)N(CC(CCCCCCCCCC)CCCCCCCCCCCC)C3=O (stereo not drawn) [Compound 18, N,N′-di(2-decyl-tetradecyl)-[2,3-d:6,7-d′]-bi[α,β-dicyanothiophene]-naphthalene-1,4,5,8-tetracarboxylic acid diimide]
- LUMO energy level [1]: −4.63 eV
- half-wave potential E1/2^red1 ([1]; vs SCE, dichloromethane): 0.19 V
- half-wave potential E1/2^red2 ([1]; vs SCE, dichloromethane): −0.40 V
- optical band gap [2]: 2.2 eV
- end absorption peak ([2]; dichloromethane, 1×10^−6M): 545 nm
- maximum UV absorption peak ([2]; dichloromethane, 1×10^−6M): 250˜318 nm
